Legend:
[1] = tested on: MCF-7 cells; assay: Breast Cancer Cell Viability Assays (MCF-7, CellTiter-Glo); assay type: cell-based; conditions: 5 days' compound exposure; for IC50: Homo sapiens, MCF7, 120 h
Procedure: MCF-7 cells were adjusted to a concentration of 20,000 cells per mL in RPMI containing 10% FBS and 20 mM HEPES. 16 microliters of the cell suspension (320 cells) was added to each well of a 384 well plate, and the cells were incubated overnight to allow the cells to adhere. The following day an eleven point, serial semilog dilution of each compound was added to the cells in 16 μL at a final concentration ranging from 0.3-0.000003 μM. After 5 days' compound exposure, 16 μL of CellTiter-GLo (Promega, Madison Wis.) was added to the cells, and the relative luminescence units (RLUs) of each well were determined. CellTiter-Glo added to 32 μL of medium without cells was used to obtain a background value. The Percent viability of each sample was determined as follows: (RLU sample−RLU background/RLU untreated cells−RLU background)×100=% viability. […]

[2] = target: T1, ER-α in MCF-7 cells (Homo sapiens, UniProt P03372); assay: Breast Cancer Cell ER-α In Cell Western Assay (SP1); assay type: cell-based; conditions: 4 or 24 hr post compound addition; for Emax: MCF7, SP1 antibody, read-out: ER-α In Cell Western Assay (SP1) Max Response; for DC50: SP1 antibody, read-out: ER-α In Cell Western Assay (SP1) IC50
T1 construct: endogenous in cells; host or cells: MCF-7
T1 sequence (P03372 1-595): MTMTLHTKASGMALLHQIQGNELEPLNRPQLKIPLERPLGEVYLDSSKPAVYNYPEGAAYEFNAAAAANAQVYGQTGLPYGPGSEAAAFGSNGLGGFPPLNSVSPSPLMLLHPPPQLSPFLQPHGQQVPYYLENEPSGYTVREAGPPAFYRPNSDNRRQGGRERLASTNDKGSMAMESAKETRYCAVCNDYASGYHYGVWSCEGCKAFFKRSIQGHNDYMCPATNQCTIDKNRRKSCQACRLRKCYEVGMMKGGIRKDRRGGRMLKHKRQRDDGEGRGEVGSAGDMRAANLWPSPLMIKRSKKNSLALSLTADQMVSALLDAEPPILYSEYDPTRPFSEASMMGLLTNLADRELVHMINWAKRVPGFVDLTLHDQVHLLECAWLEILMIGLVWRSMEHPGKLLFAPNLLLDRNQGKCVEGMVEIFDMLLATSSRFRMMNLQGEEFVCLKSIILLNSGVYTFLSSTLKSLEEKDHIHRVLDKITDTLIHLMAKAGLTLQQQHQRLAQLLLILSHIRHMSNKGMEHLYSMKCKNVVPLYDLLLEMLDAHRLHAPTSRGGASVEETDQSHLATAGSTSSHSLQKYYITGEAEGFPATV
Procedure: MCF-7 cells were adjusted to a concentration of 200,000 cells per mL in RPMI containing 10% charcoal-stripped FBS and 20 mM HEPES. 16 microliters of the cell suspension (3200 cells) was added to each well of a poly-D-lysine 384 well plate, and the cells were incubated overnight to allow the cells to adhere. The following day an eleven point, serial semilog dilution of each compound was added to the cells in 16 μL at a final concentration ranging from 0.3-0.000003 μM. At 4 or 24 hr post compound addition, the cells were fixed (10% formalin in PBS) for 20 minutes. Cells were permeablized in PBS 0.1% Triton and blocked with LICOR blocking buffer (50 μl/well, 90′). The wells were then incubated overnight at 4° C. with SP1 rabbit monoclonal Ab (Thermo Scientific) diluted 1:1000 in LICOR blocking buffer/0.1% Tween-20. Wells which were treated with blocking buffer with Tween but no antibody were used as a background control. Wells were washed with 0.1% Tween-20/PBS and then incubated in goat anti-rabbit IRDye™ 800CW (LICOR Inc.; 1:10000) and DRAQ5 DNA dye (1:2000 for 2 mM stock) diluted in LICOR blocking buffer containing 0.1% Tween-20 and 0.01% SDS for 60 minutes. Cells were washed (50 μl/well, 5′ each) in 0.1% Tween-20/PBS. Plates were scanned on a LICOR Odyssey infrared imaging system. Integrated intensities in the 800 nm channel and 700 nm channel were measured to determine levels of ER and DNA respectively. Percent ER levels were determined as follows: (Integrated intensity 800 nm sample/integrated intensity 700 nm sample)/(Integrated intensity 800 nm untreated cells/integrated intensity 700 nm untreated cells)×100=% ER levels. […]

Row | IC50 [1] [nM] | Emax [2] [%] | DC50 [2] [nM] | Compound | MCF7 Viability Assay Max Response [1]
1 | ≤ 100 | ≥ 40 | ≤ 100 | Fc1n[nH]c2ccc(/C(=C(/c3ccccc3)C3CCC3)c3ccc(/C=C/c4nnc[nH]4)cc3)cc12 [Example 284, 5-((E)-1-(4-((E)-2-(4H-1,2,4-Triazol-3-yl)vinyl)phenyl)-2-cyclobutyl-2-phenylvinyl)-3-fluoro-1H-indazole] | ++ (++ = a single % value ≧ 40%)
2 | ≤ 100 | ≥ 40 | ≤ 100 | N#Cc1ccc(/C(=C(\c2ccc(/C=C/C(=O)O)cc2)c2ccc3[nH]nc(F)c3c2)C2CC2)c(F)c1 [Example 156, (E)-3-(4-((E)-2-(4-Cyano-2-fluorophenyl)-2-cyclopropyl-1-(3-fluoro-1H-indazol-5-yl)vinyl)phenyl)acrylic acid] | ++ (++ = a single % value ≧ 40%)
3 | ≤ 100 | ≥ 40 | ≤ 100 | O=C(O)/C=C/c1ccc(/C(=C(\c2ncc(Cl)cc2Cl)C2CCC2)c2ccc3[nH]nc(F)c3c2)cc1 [Example 146, (E)-3-(4-((E)-2-Cyclobutyl-2-(3,5-dichloropyridin-2-yl)-1-(3-fluoro-1H-indazol-5-yl)vinyl)phenyl)acrylic acid] | ++ (++ = a single % value ≧ 40%)
4 | ≤ 100 | ≥ 40 | ≤ 100 | Cc1cc(C#N)ccc1/C(=C(\c1ccc(/C=C/C(=O)O)cc1)c1ccc2scnc2c1)C1CCC1 [Example 96, (E)-3-(4-((E)-1-(Benzo[d]thiazol-5-yl)-2-(4-cyano-2-methylphenyl)-2-cyclobutylvinyl)phenyl)acrylic acid] | ++ (++ = a single % value ≧ 40%)
5 | ≤ 100 | ≥ 40 | ≤ 100 | COc1cccc(/C(=C(\c2ccc(/C=C/C(=O)O)cc2)c2ccc3[nH]nc(F)c3c2)C2CC2)c1 [Example 31, (E)-3-(4-((E)-2-Cyclopropyl-1-(3-fluoro-1H-indazol-5-yl)-2-(3-methoxyphenyl)vinyl)phenyl)acrylic acid] | ++ (++ = a single % value ≧ 40%)
6 | ≤ 100 | ≥ 40 | ≤ 100 | CC/C(=C(/c1ccc(/C=C/C(=O)O)cc1)c1cccc2[nH]nc(F)c12)c1ccc(F)cc1Cl [Example 163, (E)-3-(4-((E)-2-(2-Chloro-4-fluorophenyl)-1-(3-fluoro-1H-indazol-4-yl)but-1-en-1-yl)phenyl)acrylic acid] | ++ (++ = a single % value ≧ 40%)
7 | ≤ 100 | ≥ 40 | ≤ 100 | COc1ccc(/C(=C(\c2ccc(/C=C/C(=O)O)cc2)c2ccc3nccn3c2)C2CCC2)c(C)c1 [Example 229, (E)-3-(4-((E)-2-Cyclobutyl-1-(imidazo[1,2-a]pyridin-6-yl)-2-(4-methoxy-2-methylphenyl)vinyl)phenyl)acrylic acid] | ++ (++ = a single % value ≧ 40%)
8 | ≤ 100 | ≥ 40 | ≤ 100 | CCOC(=O)/C=C/c1ccc(/C(=C(\c2ncc(Cl)cc2Cl)C2CCC2)c2ccc3[nH]nc(F)c3c2)cc1F [Example 255, (E)-Ethyl 3-(4-((Z)-2-cyclobutyl-2-(3,5-dichloropyridin-2-yl)-1-(3-fluoro-1H-indazol-5-yl)vinyl)-2-fluorophenyl)acrylate] | + (+ = a single % value < 40%)
9 | ≤ 100 | ≥ 40 | ≤ 100 | N#Cc1n[nH]c2ccc(/C(=C(/c3ccc(F)cc3Cl)C3CCC3)c3ccc(/C=C/C(=O)O)cc3)cc12 [Example 248, (E)-3-(4-((E)-2-(2-Chloro-4-fluorophenyl)-1-(3-cyano-1H-indazol-5-yl)-2-cyclobutylvinyl)phenyl)acrylic acid] | ++ (++ = a single % value ≧ 40%)
10 | ≤ 100 | ≥ 40 | ≤ 100 | O=C(O)/C=C/c1ccc(/C(=C(\c2ncc(F)cc2Cl)C2CCC2)c2ccc3[nH]nc(F)c3c2)cc1 [Example 251, (E)-3-(4-((E)-2-(3-Chloro-5-fluoropyridin-2-yl)-2-cyclobutyl-1-(3-fluoro-1H-indazol-5-yl)vinyl)phenyl)acrylic acid] | ++ (++ = a single % value ≧ 40%)
11 | ≤ 100 | ≥ 40 | ≤ 100 | Cc1ccccc1/C(=C(\c1ccc(/C=C/C(=O)O)cc1)c1ccc2scnc2c1)C1CCC1 [Example 238, (E)-3-(4-((E)-1-(Benzo[d]thiazol-5-yl)-2-cyclobutyl-2-(o-tolyl)vinyl)phenyl)acrylic acid] | ++ (++ = a single % value ≧ 40%)
12 | ≤ 100 | ≥ 40 | ≤ 100 | CC/C(=C(/c1ccc(/C=C/C(=O)O)cc1)c1ccc2[nH]nc(F)c2c1)c1ncccc1Cl [Example 262, (E)-3-(4-((E)-2-(3-Chloropyridin-2-yl)-1-(3-fluoro-1H-indazol-5-yl)but-1-en-1-yl)phenyl)acrylic acid] | ++ (++ = a single % value ≧ 40%)
13 | ≤ 100 | ≥ 40 | ≤ 100 | Clc1cnccc1/C(=C(\c1ccc(/C=C/c2nnn[nH]2)cc1)c1ccc2scnc2c1)C1CCC1 [Example 176, 5-((E)-1-(4-((E)-2-(2H-Tetrazol-5-yl)vinyl)phenyl)-2-(3-chloropyridin-4-yl)-2-cyclobutylvinyl)benzo[d]thiazole] | ++ (++ = a single % value ≧ 40%)
14 | ≤ 100 | ≥ 40 | ≤ 100 | Fc1n[nH]c2ccc(/C(=C(/c3ccccc3)C3CCC3)c3ccc(/C=C/c4ncc[nH]4)cc3)cc12 [Example 285, 5-((E)-1-(4-((E)-2-(1H-Imidazol-2-yl)vinyl)phenyl)-2-cyclobutyl-2-phenylvinyl)-3-fluoro-1H-indazole] | ++ (++ = a single % value ≧ 40%)
15 | ≤ 100 | ≥ 40 | ≤ 100 | N#Cc1ccc(/C(=C(\c2ccc(/C=C/C(=O)O)cc2)c2ccc3scnc3c2)C2CCC2)c(F)c1 [Example 95, (E)-3-(4-((E)-1-(Benzo[d]thiazol-5-yl)-2-(4-cyano-2-fluorophenyl)-2-cyclobutylvinyl)phenyl)acrylic acid] | ++ (++ = a single % value ≧ 40%)
16 | ≤ 100 | ≥ 40 | ≤ 100 | O=C(O)/C=C/c1ccc(/C(=C(\c2ccc(F)cc2C(F)(F)F)C2CCC2)c2ccc3nccn3c2)cc1 [Example 221, (E)-3-(4-((E)-2-Cyclobutyl-2-(4-fluoro-2-(trifluoromethyl)phenyl)-1-(imidazo[1,2-a]pyridin-6-yl)vinyl)phenyl)acrylic acid] | ++ (++ = a single % value ≧ 40%)
17 | ≤ 100 | ≥ 40 | ≤ 100 | COc1ccc(/C(=C(\c2ccc(/C=C/C(=O)O)cc2)c2ccc3scnc3c2)C2CCC2)cc1 [Example 91, (E)-3-(4-((E)-1-(Benzo[d]thiazol-5-yl)-2-cyclobutyl-2-(4-methoxyphenyl)vinyl)phenyl)acrylic acid] | ++ (++ = a single % value ≧ 40%)
